These results are taken from US20100233229A1, “IN-VIVO INDWELLING DEVICE” (Terumo Kabushiki Kaisha, priority 2007, published 2010).

Each structure is given as a SMILES string.

A short description of this data set: ultra-micro hardness under load (HTL) of coating layer, JIS Z2255, dynamic ultra micro hardness tester. The data set is classed as physicochemical. The settings on record: coating layer on SUS disc; 50 mg sirolimus, 50 mg PLGA, 10 mg (20% based on PLGA) of the triglyceride; about 30 μm. As for the experimental part:
When the medium-chain fatty acid triglyceride is added to the coating layer (for example, the layer formed on at least a part of a surface of a stent main body and formed from the composition containing the biologically active agent, the biodegradable polymer, and the medium-chain fatty acid triglyceride) formed on a surface of the in-vivo indwelling device, for example, on a surface of a stent, flexibility can be imparted to the coating layer. In addition, as a method for quantitatively measuring the flexibility of a very thin layer such as the above-mentioned coating layer, measurement of ultra-micro hardness under load (also called “HTL,” “dynamic hardness” and “universal hardness”) by use of an ultra-micro hardness tester can be used. In this method, as described in JIS Z2255, hardness of a solid material is measured as a resistance to a triangular pyramid diamond indenter when the indenter is pressed against the surface of a specimen, and it is possible by the method to measure hardness in a very minute region of a solid material having a thickness of not less than 10 μm. In order that such a damage as cracking of the coating layer or exfoliation of the coating layer from the stent main body is mitigated or not generated when the stent is expanded, the ultra-micro hardness under load can be 15 or below, more preferably 12 or below, and particularly preferably 10 or below. The present inventors have made earnest search for a substance which causes the ultra-micro hardness under load of the coating layer to be, for example, 15 or below and which is high in safety, among a large number of additives. As a result of the search, they found exemplary medium-chain fatty acid triglycerides.
The circular discs provided thereon with the respective coating layers were sterilized by electron beams, and ultra-micro hardness under load (HTL) of the coating layers was measured according to JIS Z2255 by use of a dynamic ultra micro hardness tester produced by Shimadzu Corporation. A lower value of HTL indicates a higher flexibility of the coating layer.
The stent was crimped onto a balloon of a delivery catheter, and sterilized by electron beams. The ultra-micro hardness under load (HTL) of the coating layer after sterilization was measured according to JIS Z2255 by use of a dynamic ultra micro hardness tester produced by Shimadzu Corporation.
As for `CCCCCCCCCCCCCC(=O)OCC(COC(=O)CCCCCCCCCCCCC)OC(=O)CCCCCCCCCCCCC` [Trimyristin], the “ultra-micro hardness under load (HTL)” value was determined as 20.
Turning to `CC(=O)OCC(COC(C)=O)OC(C)=O` [Triacetin], the “ultra-micro hardness under load (HTL)” value came out at 20.
Next, `CCCC(=O)OCC(COC(=O)CCC)OC(=O)CCC` [Tributyrin]: 19; `CCCCCC(=O)OCC(COC(=O)CCCCC)OC(=O)CCCCC` [Tricaproin]: 15; `CCCCCCCCCCCC(=O)OCC(COC(=O)CCCCCCCCCCC)OC(=O)CCCCCCCCCCC` [Trilaurin]: 15.
Next, `CCCCCCCCCC(=O)OCC(COC(=O)CCCCCCCCC)OC(=O)CCCCCCCCC` [Tricaprin]: 9.
As for `CCCCCCCC(=O)OCC(COC(=O)CCCCCCC)OC(=O)CCCCCCC` [Tricaprylin], the figure is 10.
